Among the data in patent publication US20130190289A1, “COMPOUNDS AND METHODS FOR THE TREATMENT OR PREVENTION OF FLAVIVIRUS INFECTIONS” (priority 2010, published 2013) are IC50 and CC50 values, retold here.

The test system of data set [1] is HCV replicon (genotype 1b) in Huh7 cell line ET. Nature of the data set: microbe, parasite or virus in culture. It counts as cell-based, HCV genotype 1b. Particulars: Hepatitis C virus.
Data set [2] is described as follows: [3H]Thymidine incorporation assay (cell toxicity). Particulars: human. For orientation: Uptake of a labelled nucleoside into DNA is a usual measure of proliferation.
The mark [3] stands for this setting: Huh-7, read-out: HCV-Replicon-(Luci-ET) 1b_IC50.
The mark [4] stands for this setting: Huh-7, 96 h, read-out: HCV-Replicon (Luci-ET)-1b_IC50.

Read-outs that look alike come from different tables or passages of the source.

Turning to `COC1CN(C(=O)C[C@H](C)N(c2cc(C#CC(C)(C)C)sc2C(=O)O)C(=O)[C@H]2CC[C@H](C)CC2)C1` [Compound 116, 5-(3,3-Dimethylbut-1-ynyl)-3-[[(1S)-3-(3-methoxyazetidin-1-yl)-1-methyl-3-oxo-propyl]-(trans-4-methylcyclohexanecarbonyl)amino]thiophene-2-carboxylic acid], the IC50 in data set [1] (setting [3]) is below 0.1 µM. Also, the CC50 (as a rule, the concentration that lowers cell viability or growth by half) at 72 h in data set [2] was above 100 µM.
For `CN1CCC[C@H](N(c2cc(C#CC(C)(C)C)sc2C(=O)O)C(=O)[C@H]2CC[C@H](C)CC2)C1=O` [Compound 117, 5-(3,3-dimethylbut-1-yn-1-yl)-3-(trans-4-methyl-N—((S)-1-methyl-2-oxopiperidin-3-yl)cyclohexanecarboxamido)thiophene-2-carboxylic acid], in that order: below 0.1 µM and above 100 µM.
Turning to `C[C@H]1CC[C@H](C(=O)N(CC(=O)N2CCOCC2)c2cc(-c3ccccc3)sc2C(=O)O)CC1` [Compound 121, 3-[(trans-4-methylcyclohexanecarbonyl)-N-(2-morpholino-2-oxoethyl)amino]-5-phenylthiophene-2-carboxylic acid], in data set [1] (setting [4]), the IC50 was in the range of 1 to 10 µM. Further, in data set [2], the CC50 at 72 h was above 100 µM.
As to `CC[C@H](C(=O)N1CCOCC1)N(c1cc(C#CC(C)(C)C)sc1C(=O)O)C(=O)[C@H]1CC[C@H](C)CC1` [Compound 122, 5-(3,3-dimethylbut-1-ynyl)-3-[(trans-4-methylcyclohexanecarbonyl)-[(1R)-1-(morpholine-4-carbonyl)propyl]amino]thiophene-2-carboxylic acid], the IC50 in data set [1] (setting [4]) is below 0.1 µM. In data set [2], this molecule came in with a CC50 at 72 h above 100 µM.
Regarding `CC(C)(C)C#Cc1cc(N(CC(=O)N2CCOCC2)C(=O)c2ccc(Cl)cc2)c(C(=O)O)s1` [Compound 123, 3-[(4-chlorobenzoyl)-(2-morpholino-2-oxo-ethyl)amino]-5-(3,3-dimethylbut-1-ynyl)thiophene-2-carboxylic acid], in data set [1] (setting [4]), the IC50 was below 0.1 µM. Further, in data set [2], the CC50 at 72 h is above 100 µM.
For `Cc1ccc(C(=O)N(CC(=O)N2CCOCC2)c2cc(C#CC(C)(C)C)sc2C(=O)O)cc1` [Compound 125, 5-(3,3-dimethylbut-1-ynyl)-3-[(4-methylbenzoyl)-(2-morpholino-2-oxo-ethyl)amino]thiophene-2-carboxylic acid] the same measures were 0.1 to 1 µM and above 100 µM.
In the case of `CC[C@@H](C(=O)N1CCOCC1)N(c1cc(-c2ccccc2)sc1C(=O)O)C(=O)[C@H]1CC[C@H](C)CC1` [Compound 126, 3-[(trans-4-methylcyclohexanecarbonyl)-[(1S)-1-(morpholine-4-carbonyl)propyl]amino]-5-phenyl-thiophene-2-carboxylic acid], the IC50 in data set [1] (setting [4]) was in the range of 0.1 to 1 µM. The same molecule gave a CC50 at 72 h in data set [2] above 100 µM.
With `CC(C)(C)C#Cc1cc(N(CC(=O)N2CCSCC2)C(=O)[C@H]2CC[C@H](C)CC2)c(C(=O)O)s1` [Compound 127, 5-(3,3-dimethylbut-1-ynyl)-3-[(trans-4-methylcyclohexanecarbonyl)-(2-oxo-2-thiomorpholino-ethyl)amino]thiophene-2-carboxylic acid], the IC50 in data set [1] (setting [4]) was below 0.1 µM. The molecule further had a CC50 at 72 h in data set [2] of 10 to 100 µM.
Take `C[C@H]1CC[C@H](C(=O)N(CC(=O)N2CCOCC2)c2cc(C#CC3CC3)sc2C(=O)O)CC1` [Compound 128, 5-(2-cyclopropylethynyl)-3-[(trans-4-methylcyclohexanecarbonyl)-(2-morpholino-2-oxo-ethyl)amino]thiophene-2-carboxylic acid]: the IC50 in data set [1] (setting [4]) was below 0.1 µM. This molecule also came in with a CC50 at 72 h in data set [2] above 100 µM.
As for `COC(C)(C)C#Cc1cc(N(CC(=O)N2CCOCC2)C(=O)[C@H]2CC[C@H](C)CC2)c(C(=O)O)s1` [Compound 129, 5-(3-methoxy-3-methyl-but-1-ynyl)-3-[(trans-4-methylcyclohexanecarbonyl)-(2-morpholino-2-oxo-ethyl)amino]thiophene-2-carboxylic acid], in data set [1] (setting [4]), the IC50 was in the range of 0.1 to 1 µM. The CC50 at 72 h in data set [2] is above 100 µM.
Regarding `CCC#Cc1cc(N(CC(=O)N2CCOCC2)C(=O)[C@H]2CC[C@H](C)CC2)c(C(=O)O)s1` [Compound 132, 5-But-1-ynyl-3-[(trans-4-methylcyclohexanecarbonyl)-(2-morpholino-2-oxo-ethyl)amino]thiophene-2-carboxylic acid], the IC50 in data set [1] (setting [4]) is 0.1 to 1 µM. In addition, the CC50 at 72 h in data set [2] is above 100 µM.
For `CCN1CCCC[C@H](N(C(=O)c2ccc(Cl)cc2Cl)c2cc(C#CC(C)(C)C)sc2C(=O)O)C1=O` [Compound 135, (S)-5-(3,3-dimethylbut-1-ynyl)-3-[(2,4-dichlorobenzoyl)-N-(1-ethyl-2-oxoazepan-3-yl)amino]-thiophene-2-carboxylic acid] the same measures were below 0.1 µM and above 100 µM.
Turning to `CC(C)N1CC[C@@H](N(c2cc(C#CC(C)(C)C)sc2C(=O)O)C(=O)[C@H]2CC[C@H](C)CC2)C1=O` [Compound 141, 5-(3,3-dimethylbut-1-ynyl)-3-[[(3R)-1-isopropyl-2-oxo-pyrrolidin-3-yl]-(trans-4-methylcyclohexanecarbonyl)amino]thiophene-2-carboxylic acid], the IC50 in data set [1] (setting [4]) is below 0.1 µM. The same molecule registered a CC50 at 72 h in data set [2] above 100 µM.
For `CC1(C#Cc2cc(N(CC(=O)N3CCOCC3)C(=O)[C@H]3CC[C@H](C)CC3)c(C(=O)O)s2)CC1` [Compound 144, 3-[(trans-4-methylcyclohexanecarbonyl)-(2-morpholino-2-oxo-ethyl)amino]-5-[2-(1-methylcyclopropyl)ethynyl]thiophene-2-carboxylic acid], in data set [1] (setting [4]), the IC50 is below 0.1 µM. The CC50 at 72 h in data set [2] was above 100 µM.
For `CN(C)CCN1CCCC[C@H](N(c2cc(C#CC(C)(C)C)sc2C(=O)O)C(=O)[C@H]2CC[C@H](C)CC2)C1=O` [Compound 145, (S)-5-(3,3-Dimethylbut-1-ynyl)-3-((trans)-4-methyl-N-(1-(2-dimethylaminoethyl)-2-oxoazepan-3-yl)cyclohexanecarboxamido)thiophene-2-carboxylic acid] the same measures were below 0.1 µM and 10 to 100 µM.
On to `CN1CCOC[C@H](N(C(=O)c2ccc(Cl)cc2Cl)c2cc(C#CC(C)(C)C)sc2C(=O)O)C1=O` [Compound 147, (S)-5-(3,3-Dimethylbut-1-ynyl)-3-[(2,4-dichlorobenzoyl)-N-(4-methyl-5-oxo-1,4-oxazepan-6-yl)amino]thiophene-2-carboxylic acid], for which the IC50 in data set [1] (setting [4]) was in the range of 0.1 to 1 µM. This molecule also returned a 50% cytotoxic concentration (CC50) at 72 h in data set [2] above 100 µM.
Take `COCCN1CCC[C@H](N(c2cc(C#CC(C)(C)C)sc2C(=O)O)C(=O)[C@H]2CC[C@H](C)CC2)C1=O` [Compound 150, (S)-5-(3,3-Dimethylbut-1-ynyl)-3-((trans)-4-methyl-N-(1-(2-methoxyethyl)-2-oxopiperidin-3-yl)cyclohexanecarboxamido)thiophene-2-carboxylic acid]: the IC50 in data set [1] (setting [4]) is below 0.1 µM. The molecule further yielded a CC50 at 72 h in data set [2] above 100 µM.
With `C[C@H]1CC[C@H](C(=O)N(CC(=O)N2CCOCC2)c2cc(-c3ccc(Oc4ccccc4)cc3)sc2C(=O)O)CC1` [Compound 151, 3-[(trans-4-methylcyclohexanecarbonyl)-(2-morpholino-2-oxo-ethyl)amino]-5-(4-phenoxyphenyl)thiophene-2-carboxylic acid], in data set [1] (setting [4]), the IC50 was 0.1 to 1 µM. For the same molecule, the CC50 at 72 h in data set [2] lay in the range of 10 to 100 µM.
As for `O=C(O)c1sc(-c2ccc(Oc3ccccc3)cc2)cc1N(CC(=O)N1CCOCC1)C(=O)c1ccc(Cl)cc1Cl` [Compound 152, 3-[(2,4-dichlorobenzoyl)-(2-morpholino-2-oxo-ethyl)amino]-5-(4-phenoxyphenyl)thiophene-2-carboxylic acid], in data set [1] (setting [4]), the IC50 fell in the range of 1 to 10 µM. In addition, the CC50 at 72 h in data set [2] fell in the range of 10 to 100 µM.
